The values below are quoted from earlier work in paper PMC4520450, “Procyanidins Negatively Affect the Activity of the Phosphatases of Regenerating Liver” (PLoS ONE, 2015).

Common to all, as to details: cited from earlier work
One data set concerns the target protein phosphatase-1. Details: method as in PMID 22260360.
The target in another data set is T1, PRL-3 (Homo sapiens, UniProt O75365).
T1 construct: His-TEV (cleaved yes); made in house
On the set-up: method as in PMID 20873564.

A further data set deals with Caco-2 cell model. On the set-up: method as in PMID 23885956.

T1 sequence (O75365 whole entry): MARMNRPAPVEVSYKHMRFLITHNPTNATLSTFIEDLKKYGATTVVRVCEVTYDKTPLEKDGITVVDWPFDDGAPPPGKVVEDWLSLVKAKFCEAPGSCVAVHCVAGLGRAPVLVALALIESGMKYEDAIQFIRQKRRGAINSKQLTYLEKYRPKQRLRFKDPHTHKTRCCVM

By IC50 is commonly meant the midpoint of a concentration-inhibition curve. Consider `O=C(OC[C@H]1O[C@@H](OC(=O)c2cc(O)c(O)c(O)c2)[C@H](OC(=O)c2cc(O)c(O)c(O)c2)[C@@H](OC(=O)c2cc(O)c(O)c(O)c2)[C@@H]1OC(=O)c1cc(O)c(O)c(O)c1)c1cc(O)c(O)c(O)c1` [PGG, 1,2,3,4,6-penta-O-galloyl-beta-D-glucose, reference compound], for which the IC50 on protein phosphatase-1 is 400 nM.
Take `O=c1c(O)c(-c2ccc(O)c(O)c2)oc2c(O[C@@H]3O[C@H](CO)[C@@H](O)[C@H](O)[C@H]3O)c(O)cc(O)c12` [gossypin]: at PRL-3, the “PRL-3 phosphatase inhibition in vitro” value is recorded as “moderate phosphatase inhibition”.
On to `O=c1c(O)c(-c2cc(O)c(O)c(O)c2)oc2cc(O)cc(O)c12` [myricetin], for which the “PRL-3 phosphatase inhibition in vitro” value on PRL-3 was “moderate phosphatase inhibition”.
Regarding `Oc1cc(O)c2c(c1)O[C@H](c1ccc(O)c(O)c1)[C@H](O)[C@H]2c1c(O)cc(O)c2c1O[C@H](c1ccc(O)c(O)c1)[C@H](O)[C@H]2c1c(O)cc(O)c2c1O[C@H](c1ccc(O)c(O)c1)[C@H](O)C2` [procyanidin C1, reference compound], in the data set with Caco-2 cell model, the permeation entry is listed as “no permeation was detected”.
